Results on 1 compound are retold here after ChEMBL document CHEMBL5725727, “Substituted nicotinamide derivatives as kinase inhibitors” (2017).

Structures are written as SMILES.

This experiment addresses Platelet-derived growth factor receptor beta (Homo sapiens, UniProt P09619). The experiment in a line: PDGFRβ Kinase Assay: Biochemical PDGFRβ kinase assays were performed in 96 well microtiter plates that were coated overnight with 75 μg of poly-Glu-Tyr (4:1) in 10 mM Phosphate Buffered Saline (PBS), pH 7.4. The coated plates were washed with 2 mls per well PBS+0.05% Tween-20 (PBS-T), blocked by incubation with PBS containing 1% BSA, then washed with 2 mls per well PBS-T prior to starting the reaction. Reactions were carried out in 100 μL reaction volumes containing 36 μM ATP in kinase buffer (50 mM Hepes buffer pH 7.4, 20 mM MgCl2, 0.1 mM MnCl2 and 0.2 mM Na3VO4). Test compounds were reconstituted in 100% DMSO and added to the reaction to give a final DMSO concentration of 5%. Reactions were initiated by the addition 20 ul per well of kinase buffer containing 200-300 ng purified cytoplasmic domain PDGFR-b protein (Millipore). Following a 60 minute incubation at 30° C., the reactions were washed 2 mls per well PBS-T. 100 μl of a monoclonal anti-phosphotyrosine antibody-peroxidase conjugate diluted 1:10,000 in PBS-T was added to the wells for 30 minutes. Following a 2 mls per well wash with PBS-Tween-20, 100 μl of O-Phenylenediamine Dihydrochloride in phosphate-citrate buffer, containing urea hydrogen peroxide, was added to the wells for 7-10 minutes as a colorimetric substrate for the peroxidase. […].

Chain of Platelet-derived growth factor receptor beta (P09619 whole entry): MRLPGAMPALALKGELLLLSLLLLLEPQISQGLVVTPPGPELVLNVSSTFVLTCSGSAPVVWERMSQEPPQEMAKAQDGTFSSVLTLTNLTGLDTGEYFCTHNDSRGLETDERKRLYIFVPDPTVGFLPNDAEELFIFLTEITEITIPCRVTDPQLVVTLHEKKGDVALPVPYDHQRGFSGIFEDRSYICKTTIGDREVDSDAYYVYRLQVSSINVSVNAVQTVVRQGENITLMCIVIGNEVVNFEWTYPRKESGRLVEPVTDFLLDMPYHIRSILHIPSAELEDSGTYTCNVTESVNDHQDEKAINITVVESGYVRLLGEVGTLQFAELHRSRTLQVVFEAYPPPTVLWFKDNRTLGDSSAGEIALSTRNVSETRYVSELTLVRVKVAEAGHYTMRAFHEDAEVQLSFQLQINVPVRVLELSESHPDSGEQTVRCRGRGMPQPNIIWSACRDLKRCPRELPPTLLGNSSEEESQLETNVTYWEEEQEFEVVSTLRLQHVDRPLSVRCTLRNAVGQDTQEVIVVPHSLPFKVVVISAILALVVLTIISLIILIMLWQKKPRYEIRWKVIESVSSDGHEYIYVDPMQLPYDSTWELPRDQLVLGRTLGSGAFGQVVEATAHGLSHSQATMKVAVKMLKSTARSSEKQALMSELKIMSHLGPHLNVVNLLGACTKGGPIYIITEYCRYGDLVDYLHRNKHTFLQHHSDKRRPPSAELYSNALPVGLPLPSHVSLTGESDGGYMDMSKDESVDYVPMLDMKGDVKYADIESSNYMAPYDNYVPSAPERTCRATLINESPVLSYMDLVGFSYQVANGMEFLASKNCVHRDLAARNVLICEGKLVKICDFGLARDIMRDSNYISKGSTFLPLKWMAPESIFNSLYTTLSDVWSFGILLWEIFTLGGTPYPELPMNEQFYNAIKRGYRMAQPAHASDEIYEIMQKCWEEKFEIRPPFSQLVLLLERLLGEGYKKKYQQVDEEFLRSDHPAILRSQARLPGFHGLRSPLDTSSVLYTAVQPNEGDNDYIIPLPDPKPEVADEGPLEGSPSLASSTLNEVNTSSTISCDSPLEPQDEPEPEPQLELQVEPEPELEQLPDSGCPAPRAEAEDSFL

As usually defined, the IC50 is the midpoint of a concentration-inhibition curve. Read a low IC50 as inhibition by little substance. `Cc1ccc(F)c(NC(=O)c2cccc(C#Cc3cc(C(=O)N=S4(=O)CCOCC4)cnc3N)c2)c1` showed a concentration for half-maximal inhibition (IC50) of 11 nM.
